The values below come from patent publication US20260297081A1, “COMPOUNDS AND METHODS OF TREATING CANCERS” (Cullgen Inc., priority 2023, published 2026).

The target of the experiment is CDK4 (Homo sapiens, UniProt P11802+Q16531). Description: CDK4 percentage degradation in Calu-1 cells (Table 6). The experiment is classed as cell-based. The note with it: 16 hours; for inhibition at 0.04 µM: 40 nM; for inhibition at 0.2 µM: 200 nM. On the set-up: Cells that express cyclin D1-3 and CDK4/6 proteins were treated with heterobifunctional compounds; endogenous in cells; host or cells: Calu-1. The protocol: Calu-(cells were treated with heterobifunctional compounds at 40 nM or 200 nM for 16 hours A: protein percentage degradation […]; B: protein percentage degradation <80%, and ≥50%; C: protein percentage degradation <50%, and ≥30%; D; protein percentage degradation […]; -, data not available.
Calu-1, T47D, MCF7, HCC1428 and other cells were cultured at 37° C. with 5% CO2 in RPMI 1640 or DMEM medium supplemented with 10% fetal bovine serum. Cells were authenticated using the short tandem repeat (STR) assays. Mycoplasma test results were negative. For palbo-resistant cell model, T47D cells were cultured long-term to resistance in the presence of 1 μM Palbociclib. Cells were deemed resistant when growing in the presence of Palbo at the same rate as parental cells.
Cultured cells were washed with cold PBS once and lysed in cold RIPA buffer supplemented with protease inhibitors and phosphatase inhibitors (Beyotime Biotechnology). The solutions were then incubated at 4 ? for 30 min with gentle agitation to fully lysed cells. Cell lysates were centrifuged at 13,000 rpm for 10 min at 4 ? and pellets were discarded. Total protein concentrations in the lysates were determined following BCA assays (Beyotime Biotechnology). Cell lysates were mixed with Laemmli loading buffer and heated at 99° C. for 5 min. Proteins were resolved on SDS-PAGE and visualized using Western ECL Substrate kits on a ChemiDoc MP Imaging system (Bio-Rad). Protein bands were quantitated using the Image Lab software provided by Bio-Rad.

CDK4, sequence (P11802 2-303 limits assumed): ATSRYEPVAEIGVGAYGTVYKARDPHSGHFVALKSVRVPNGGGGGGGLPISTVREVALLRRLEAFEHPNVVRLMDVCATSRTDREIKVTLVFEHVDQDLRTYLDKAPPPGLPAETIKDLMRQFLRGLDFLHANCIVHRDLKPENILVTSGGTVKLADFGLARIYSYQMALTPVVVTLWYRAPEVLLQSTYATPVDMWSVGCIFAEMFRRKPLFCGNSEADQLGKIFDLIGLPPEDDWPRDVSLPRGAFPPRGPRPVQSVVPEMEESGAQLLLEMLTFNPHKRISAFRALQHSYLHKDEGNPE
CDK4, sequence (P24385 whole entry partner): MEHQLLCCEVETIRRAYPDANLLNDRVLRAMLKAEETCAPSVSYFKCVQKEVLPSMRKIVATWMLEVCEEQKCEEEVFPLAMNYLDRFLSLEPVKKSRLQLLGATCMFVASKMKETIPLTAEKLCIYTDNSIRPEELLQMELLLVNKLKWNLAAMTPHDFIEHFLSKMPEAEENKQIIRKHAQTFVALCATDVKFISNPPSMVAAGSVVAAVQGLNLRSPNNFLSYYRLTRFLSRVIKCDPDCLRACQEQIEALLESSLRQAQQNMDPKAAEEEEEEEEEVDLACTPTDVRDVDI
CDK4, sequence (Q16531 2-1140 limits assumed): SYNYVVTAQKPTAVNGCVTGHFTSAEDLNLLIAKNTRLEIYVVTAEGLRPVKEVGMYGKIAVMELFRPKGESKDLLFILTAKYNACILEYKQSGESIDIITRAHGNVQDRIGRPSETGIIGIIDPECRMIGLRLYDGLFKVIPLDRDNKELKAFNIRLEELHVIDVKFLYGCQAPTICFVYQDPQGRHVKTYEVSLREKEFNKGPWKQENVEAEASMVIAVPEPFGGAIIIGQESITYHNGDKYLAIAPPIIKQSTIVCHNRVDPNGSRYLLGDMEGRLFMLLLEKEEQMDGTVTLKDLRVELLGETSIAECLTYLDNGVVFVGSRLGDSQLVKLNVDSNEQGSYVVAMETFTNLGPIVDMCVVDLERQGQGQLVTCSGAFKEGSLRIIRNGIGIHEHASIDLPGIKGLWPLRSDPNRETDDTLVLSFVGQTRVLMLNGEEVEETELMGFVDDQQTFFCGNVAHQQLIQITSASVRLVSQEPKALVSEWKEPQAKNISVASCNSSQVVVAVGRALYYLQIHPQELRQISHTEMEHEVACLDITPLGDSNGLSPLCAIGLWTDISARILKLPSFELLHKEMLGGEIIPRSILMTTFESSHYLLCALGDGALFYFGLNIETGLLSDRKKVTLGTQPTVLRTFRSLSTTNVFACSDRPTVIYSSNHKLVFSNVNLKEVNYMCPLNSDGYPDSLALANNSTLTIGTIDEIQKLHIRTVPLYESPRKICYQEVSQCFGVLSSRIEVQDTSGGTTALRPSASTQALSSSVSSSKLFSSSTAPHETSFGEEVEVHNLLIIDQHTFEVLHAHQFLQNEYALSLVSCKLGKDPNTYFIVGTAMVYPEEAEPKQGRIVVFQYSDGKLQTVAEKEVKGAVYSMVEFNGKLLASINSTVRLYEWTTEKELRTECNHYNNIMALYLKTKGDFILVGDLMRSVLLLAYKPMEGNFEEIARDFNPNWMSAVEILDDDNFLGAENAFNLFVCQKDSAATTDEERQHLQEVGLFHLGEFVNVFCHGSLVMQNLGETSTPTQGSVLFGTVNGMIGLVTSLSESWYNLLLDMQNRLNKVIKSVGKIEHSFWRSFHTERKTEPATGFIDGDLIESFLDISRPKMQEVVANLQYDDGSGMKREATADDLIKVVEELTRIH

`CNc1ccc(C(=O)Nc2ccc(N(C)C)nc2)c(NCCCCCNC(=O)CN2CCN(c3ccc(Nc4ncc5c(C)c(C(C)=O)c(=O)n(C6CCCC6)c5n4)nc3)CC2)n1` [CPD-58, 2-((5-(2-(4-(6-((6-Acetyl-8-cyclopentyl-5-methyl-7-oxo-7,8-dihydropyrido[2,3-d]pyrimidin-2-yl)amino)pyridin-3-yl)piperazin-1-yl)acetamido)pentyl)amino)-N-(6-(dimethylamino)pyridin-3-yl)-6-(methylamino)nicotinamide] had an inhibition at 0.04 µM of 30 to 50% and an inhibition at 0.2 µM of 50 to 80%.

With `CC(=O)c1c(C)c2cnc(Nc3ccc(N4CCN(CC(=O)NCCCCCNc5nc(NC6CCC6)ccc5C(=O)Nc5ccc(N(C)C)nn5)CC4)cn3)nc2n(C2CCCC2)c1=O` [CPD-59, 2-((5-(2-(4-(6-((6-Acetyl-8-cyclopentyl-5-methyl-7-oxo-7,8-dihydropyrido[2,3-d]pyrimidin-2-yl)amino)pyridin-3-yl)piperazin-1-yl)acetamido)pentyl)amino)-6-(cyclobutylamino)-N-(6-(dimethylamino)pyridazin-3-yl)nicotinamide], the inhibition at 0.04 µM fell in the range of 50 to 80% and the inhibition at 0.2 µM was 50 to 80%.

The compound `CC(=O)c1c(C)c2cnc(Nc3ccc(N4CCN(CC(=O)NC(C)CCCCNc5nc(C6CC6)ccc5C(=O)Nc5ccc(C)c(C6CC6)n5)CC4)cn3)nc2n(C2CCCC2)c1=O` (stereo not drawn) [CPD-60, 2-((5-(2-(4-(6-((6-Acetyl-8-cyclopentyl-5-methyl-7-oxo-7,8-dihydropyrido[2,3-d]pyrimidin-2-yl)amino)pyridin-3-yl)piperazin-1-yl)acetamido)hexyl)amino)-6-cyclopropyl-N-(6-cyclopropyl-5-methylpyridin-2-yl)nicotinamide] had an inhibition at 0.04 µM of 50 to 80% and an inhibition at 0.2 µM of 50 to 80%.

In turn, `CNc1ccc(C(=O)Nc2nc(C3CC3)ccc2C)c(NCCCCCNC(=O)CN2CCN(c3ccc(Nc4ncc5c(C)c(C(C)=O)c(=O)n(C6CCCC6)c5n4)nc3)CC2)n1` [CPD-61, 2-((5-(2-(4-(6-((6-Acetyl-8-cyclopentyl-5-methyl-7-oxo-7,8-dihydropyrido[2,3-d]pyrimidin-2-yl)amino)pyridin-3-yl)piperazin-1-yl)acetamido)pentyl)amino)-N-(6-cyclopropyl-3-methylpyridin-2-yl)-6-(methylamino)nicotinamide] showed an inhibition at 0.04 µM below 30% and an inhibition at 0.2 µM below 30%.

`CNc1ccc(C(=O)NC2CC(N(C)C)C2)c(NCCCCCNC(=O)CN2CCN(c3ccc(Nc4ncc5c(C)c(C(C)=O)c(=O)n(C6CCCC6)c5n4)nc3)CC2)n1` (stereo not drawn) [CPD-64, 2-((5-(2-(4-(6-((6-Acetyl-8-cyclopentyl-5-methyl-7-oxo-7,8-dihydropyrido[2,3-d]pyrimidin-2-yl)amino)pyridin-3-yl)piperazin-1-yl)acetamido)pentyl)amino)-N-(3-(dimethylamino)cyclobutyl)-6-(methylamino)nicotinamide] came in with an inhibition at 0.04 µM below 30% and an inhibition at 0.2 µM below 30%.

For `CNc1ccc(C(=O)NC2CC(CN(C)C)C2)c(NCCCCCNC(=O)CN2CCN(c3ccc(Nc4ncc5c(C)c(C(C)=O)c(=O)n(C6CCCC6)c5n4)nc3)CC2)n1` (stereo not drawn) [CPD-65, 2-((5-(2-(4-(6-((6-Acetyl-8-cyclopentyl-5-methyl-7-oxo-7,8-dihydropyrido[2,3-d]pyrimidin-2-yl)amino)pyridin-3-yl)piperazin-1-yl)acetamido)pentyl)amino)-N-(3-((dimethylamino)methyl)cyclobutyl)-6-(methylamino)nicotinamide], the inhibition at 0.04 µM is below 30% and the inhibition at 0.2 µM is below 30%.

For `CNc1ccc(C(=O)NC2CC3(C2)CC(N(C)C)C3)c(NCCCCCNC(=O)CN2CCN(c3ccc(Nc4ncc5c(C)c(C(C)=O)c(=O)n(C6CCCC6)c5n4)nc3)CC2)n1` (stereo not drawn) [CPD-67, 2-((5-(2-(4-(6-((6-Acetyl-8-cyclopentyl-5-methyl-7-oxo-7,8-dihydropyrido[2,3-d]pyrimidin-2-yl)amino)pyridin-3-yl)piperazin-1-yl)acetamido)pentyl)amino)-N-(6-(dimethylamino)spiro[3.3]heptan-2-yl)-6-(methylamino)nicotinamide], the inhibition at 0.04 µM is below 30% and the inhibition at 0.2 µM was below 30%.

For the compound `CC(=O)c1c(C)c2cnc(Nc3ccc(N4CCN(CC(=O)NCCCCCNc5nc(C(F)(F)F)ccc5C(=O)Nc5ccc(N(C)C)nn5)CC4)cn3)nc2n(C2CCCC2)c1=O` [CPD-68, 2-((5-(2-(4-(6-((6-Acetyl-8-cyclopentyl-5-methyl-7-oxo-7,8-dihydropyrido[2,3-d]pyrimidin-2-yl)amino)pyridin-3-yl)piperazin-1-yl)acetamido)pentyl)amino)-N-(6-(dimethylamino)pyridazin-3-yl)-6-(trifluoromethyl)nicotinamide], the inhibition at 0.04 µM is 30 to 50% and the inhibition at 0.2 µM fell in the range of 50 to 80%.

`CNc1ccc(C(=O)Nc2ccc3c(n2)CCC3)c(NC2CC3(CC(NC(=O)CN4CCN(c5ccc(Nc6ncc7c(C)c(C(C)=O)c(=O)n(C8CCCC8)c7n6)nc5)CC4)C3)C2)n1` (stereo not drawn) [CPD-69, 2-((6-(2-(4-(6-((6-Acetyl-8-cyclopentyl-5-methyl-7-oxo-7,8-dihydropyrido[2,3-d]pyrimidin-2-yl)amino)pyridin-3-yl)piperazin-1-yl)acetamido)spiro[3.3]heptan-2-yl)amino)-N-(6,7-dihydro-5H-cyclopenta[b]pyridin-2-yl)-6-(methylamino)nicotinamide]: the inhibition at 0.04 µM was 30 to 50% and the inhibition at 0.2 µM lay in the range of 50 to 80%.

`CNc1ccc(C(=O)Nc2cc(C)n(C)n2)c(NC2CC3(CC(NC(=O)CN4CCN(c5ccc(Nc6ncc7c(C)c(C(C)=O)c(=O)n(C8CCCC8)c7n6)nc5)CC4)C3)C2)n1` (stereo not drawn) [CPD-70, 2-((6-(2-(4-(6-((6-Acetyl-8-cyclopentyl-5-methyl-7-oxo-7,8-dihydropyrido[2,3-d]pyrimidin-2-yl)amino)pyridin-3-yl)piperazin-1-yl)acetamido)spiro[3.3]heptan-2-yl)amino)-N-(1,5-dimethyl-1H-pyrazol-3-yl)-6-(methylamino)nicotinamide] came in with an inhibition at 0.04 µM of 50 to 80% and an inhibition at 0.2 µM of 50 to 80%.

`CNc1ccc(C(=O)N(C)c2ccc(N(C)C)nn2)c(NCCCCCNC(=O)CN2CCN(c3ccc(Nc4ncc5c(C)c(C(C)=O)c(=O)n(C6CCCC6)c5n4)nc3)CC2)n1` [CPD-71, 2-((5-(2-(4-(6-((6-acetyl-8-cyclopentyl-5-methyl-7-oxo-7,8-dihydropyrido[2,3-d]pyrimidin-2-yl)amino)pyridin-3-yl)piperazin-1-yl)acetamido)pentyl)amino)-N-(6-(dimethylamino)pyridazin-3-yl)-N-methyl-6-(methylamino)nicotinamide] yielded an inhibition at 0.04 µM below 30% and an inhibition at 0.2 µM below 30%.

`CNc1ccc(C(=O)Nc2cccc(C3CC3)n2)c(NC2CC3(CC(NC(=O)CN4CCN(c5ccc(Nc6ncc7c(C)c(C(C)=O)c(=O)n(C8CCCC8)c7n6)nc5)CC4)C3)C2)n1` (stereo not drawn) [CPD-72, 2-((6-(2-(4-(6-((6-Acetyl-8-cyclopentyl-5-methyl-7-oxo-7,8-dihydropyrido[2,3-d]pyrimidin-2-yl)amino)pyridin-3-yl)piperazin-1-yl)acetamido)spiro[3.3]heptan-2-yl)amino)-N-(6-cyclopropylpyridin-2-yl)-6-(methylamino)nicotinamide] yielded an inhibition at 0.04 µM of 50 to 80% and an inhibition at 0.2 µM above 80%.

`CNc1ccc(C(=O)Nc2ccc(C3CC3)nc2)c(NC2CC3(CC(NC(=O)CN4CCN(c5ccc(Nc6ncc7c(C)c(C(C)=O)c(=O)n(C8CCCC8)c7n6)nc5)CC4)C3)C2)n1` (stereo not drawn) [CPD-74, 2-((6-(2-(4-(6-((6-Acetyl-8-cyclopentyl-5-methyl-7-oxo-7,8-dihydropyrido[2,3-d]pyrimidin-2-yl)amino)pyridin-3-yl)piperazin-1-yl)acetamido)spiro[3.3]heptan-2-yl)amino)-N-(6-cyclopropylpyridin-3-yl)-6-(methylamino)nicotinamide] registered an inhibition at 0.04 µM below 30% and an inhibition at 0.2 µM below 30%.

The compound `CNc1ccc(C(=O)Nc2cccc(C(C)C)n2)c(NC2CC3(CC(NC(=O)CN4CCN(c5ccc(Nc6ncc7c(C)c(C(C)=O)c(=O)n(C8CCCC8)c7n6)nc5)CC4)C3)C2)n1` (stereo not drawn) [CPD-76, 2-((6-(2-(4-(6-((6-Acetyl-8-cyclopentyl-5-methyl-7-oxo-7,8-dihydropyrido[2,3-d]pyrimidin-2-yl)amino)pyridin-3-yl)piperazin-1-yl)acetamido)spiro[3.3]heptan-2-yl)amino)-N-(6-isopropylpyridin-2-yl)-6-(methylamino)nicotinamide] registered an inhibition at 0.04 µM below 30% and an inhibition at 0.2 µM of 30 to 50%.

Take `CNc1ccc(C(=O)Nc2ccc(=O)[nH]n2)c(NCCCCCNC(=O)CN2CCN(c3ccc(Nc4ncc5c(C)c(C(C)=O)c(=O)n(C6CCCC6)c5n4)nc3)CC2)n1` [CPD-77, 2-((5-(2-(4-(6-((6-Acetyl-8-cyclopentyl-5-methyl-7-oxo-7,8-dihydropyrido[2,3-d]pyrimidin-2-yl)amino)pyridin-3-yl)piperazin-1-yl)acetamido)pentyl)amino)-6-(methylamino)-N-(6-oxo-1,6-dihydropyridazin-3-yl)nicotinamide]: the inhibition at 0.04 µM was below 30% and the inhibition at 0.2 µM was below 30%.
